According to US20230220021A1, “CYCLIC PEPTIDE INHIBITORS OF PSD-95 AND USES THEREOF” (University of Copenhagen, priority 2020, published 2023):
Where a SMILES comes first, the peptide text is derived from it. [ ]: non-standard residue; d: D form.

Key:
[1] = target: T1, PSD-95-PDZ2 (Homo sapiens, UniProt P78352, V178C); assay: SPOT peptide array screening with TAMRA labelled PSD-95-PDZ2; type: binding; details: SPOT array, TAMRA labelled PSD-95-PDZ2-V178C, normalized to WT
T1 construct: screened with the TAMRA labelled PSD-95-PDZ2-V178C domain; 7xHis (N); made in house
Method: SPOT peptide array synthesis. To generate the cyclic nNOSβ-hairpin arrays, we used the Intavis MultiPep spotter (Intavis Bioanalytical instruments). The membranes employed in this assay were SynthoPlan APEG CE (standard amino-modified acid stable sellulose membrane with a PEG-spacer), 10×15 cm with a loading of 400 nmol cm^−2. Solutions of 0.3 M Fmoc-AA-OH and 0.3 M Oxyma Pure were prepared in N-methyl-2-pyrrolidone (NMP). The activator solution consisted of 0.3 M DIC and 0.3 M of 2,4,6-trimethylpyridine (Collidine) in NMP. The capping solution consisted of a solution of 1 M acetic anhydride and 0.05 M of 4-dimethylaminopyridine (DMAP) in NMP. The deprotection solution consisted of 20% piperidine in NMP. AA couplings were performed 1 h,4 times. Deprotection of the Fmoc groups was performed 15min,2 times. Membrane washing between couplings or deprotections was performed with NMP and ethanol. Elongation of peptides in cellulose membrane was started by coupling first the Fmoc-PEG(9)-OH (Iris Biotech) and the subsequent mixture of Fmoc-Gly-OH (25%) and Boc-Gly-OH (75%) to lower the total loading of the membrane. Afterwards, the resin was capped with the capping solution and extensively washed and soaked in bromophenol blue (BPB) as a quality control to reveal the SPOTS with a functional amino group. Then, we coupled the quasi-orthogonal group Fmoc-Glu-PP, and carried out the rest of the synthesis until peptide completion. The cellulose bound linear peptides were finally treated with a solution of 95% DCM, 3% TIPS and 2% TFA 3 times, 20 min. to remove the quasi-orthogonal group. Afterwards, the membrane was washed 5 times with DCM and neutralized with 5% DIPEA in DCM. The membrane was then washed 5 more times with DCM, 5 times with NMP and cyclized with 0.3M PyAOP and 0.3M of DIPEA in DMF for 3 h or overnight. Finally, the membrane was dried with DCM and the side-chain protecting groups were cleaved with the standard deprotection cocktail (95% TFA, 2.5% H2O and 2.5% TIPS) or with reagent K [TFA 82.5%, phenol 5%, H2O 5%, thioanisole 5% and 1,2-ethanedithiol (EDT) 2.5%] for 3 h.
SPOT membrane screening. Membranes were incubated with PBS pH 7.2+0.5% bovine serum albumin (BSA) for 1 h. After the incubation period, the membrane was dried and scanned with an Amershan Typhoon scanner, at 400V, Cy3 wavelength (532 nm). A TIF file of the screening and a file with the blank values were generated using the Image Quant software. Afterwards, a solution of 50 nM of TAMRA labelled PSD-95-PDZ2 domain was prepared in PBS pH 7.2+0.5% BSA and was added to the membrane. The membrane was left incubating in a Polymax 1040 rocking table for 1 h protected from the light. Passed the incubation time, the excess of labelled protein was removed by washing the membrane 3 times with PBS+0.5% BSA. Finally, the membrane fluorescence values were measured with the Amershan Typhoon scanner at 400V, Cy3 wavelength (532 nm). Using the Image Quant software, the TIF image of the screening and a file with the fluorescence values of the peptides with the TAMRA labelled PSD-95-PDZ2 were generated. The blank was then subtracted from the fluorescence values of the peptides screened against the TAMRA labelled PSD-95-PDZ2.
A deep mutational scan was performed on the WT scaffold, exchanging each AA to the remaining 19 L-AAs. Each array contained three copies of the individual peptides as technical replicates. Additionally, three controls were included in the design: the cyclic nNOS β-hairpin WT control (positive control), a linear nNOS peptide (cyclization control) and a cyclic nNOS β-hairpin with a F111V substitution (negative control previously tested in FP competition assays). For array screening, a mutation in PSD-95-PDZ2 residue V178 (PSD-95-PDZ2-V178C) was introduced, which was subsequently labelled with TAMRA maleimide. […]

[2] = target: T2, PSD-95-PDZ2 (Homo sapiens, UniProt P78352); assay: Fluorescence polarization (FP) competition assay against cyclic nNOS TAMRA probe; type: binding; details: for Relative Ki (Ki mut/Ki WT): FP inhibition constant normalized to WT value
T2 construct: 7xHis (N); made in house; host or cells: Escherichia coli B21 pLys (for the mutants, 'as previously described')
Method: Fluorescence polarization (FP). FP assays were performed in a 384-well plate format. Fluorescence polarization was measured using a Safire 2 plate reader. The instrument Z-factor was optimized for each assay. The G-factor was calibrated to an initial milli polarization value of 20. The wavelength for the cyclic nNOS β-hairpin TAMRA probe was: ex: 530 nm and em: 580 nm. Every measurement was performed in NaPI 50 mM, 50 mM NaCl and 1% BSA at pH 7.2, 25° C. […] The curves were done in triplicates. Then, the polarization was fitted into a one-site binding model using Prism software 8.0 (GraphPad), from which the Kd can be measured. […] The mili polarization (mP) values were plotted as a function of peptide concentration and fitted to a sigmoidal dose-response curve using Prism software 8.0 (GraphPad). The Ki values were calculated according to Nikolovska-Coleska Z. et al.^40-41

Row | Compound | Normalized SPOT fluorescence (Mut/WT) [1] | Relative Ki (Ki mut/Ki WT) [2] | Ki ([2]; FP competition, cyclic nNOS TAMRA probe, mean of triplicates, N.B. = not binding, read-out: Ki) [nM]
1 | CC[C@H](C)[C@@H]1NC(=O)[C@H]([C@@H](C)O)NC(=O)[C@H](CCCCN)NC(=O)[C@@H]2CCCN2C(=O)[C@H]([C@@H](C)O)NC(=O)CNC(=O)[C@H](CC(=O)O)NC(=O)CNC(=O)[C@H]([C@@H](C)O)NC(=O)[C@H](Cc2ccccc2)NC(=O)[C@H]([C@@H](C)O)NC(=O)[C@H]([C@@H](C)O)NC(=O)[C@H](CCC(=O)O)NC(=O)[C@H](CC(C)C)NC(=O)[C@H](C)NC(=O)[C@H]([C@@H](C)O)NC(=O)[C@H](CCC(N)=O)NC(=O)CNC(=O)[C@H]2CCCN2C(=O)[C@H](CCC(N)=O)NC(=O)[C@H]([C@@H](C)O)NC(=O)[C@H](C(C)C)NC(=O)[C@H](CCCNC(=N)N)NC1=O [compound 56] (cyclo(TALETTFTGDGTPKTIRVTQ[dP]GQ)) | 0.38 | 1.37 | –
2 | CC[C@H](C)[C@@H]1NC(=O)[C@H]([C@@H](C)O)NC(=O)[C@H](CCCCN)NC(=O)[C@@H]2CCCN2C(=O)[C@H]([C@@H](C)O)NC(=O)CNC(=O)[C@H](CC(=O)O)NC(=O)CNC(=O)[C@H]([C@@H](C)O)NC(=O)[C@H](Cc2ccccc2)NC(=O)[C@H]([C@@H](C)O)NC(=O)[C@H]([C@@H](C)O)NC(=O)[C@H](C)NC(=O)[C@H](CC(C)C)NC(=O)[C@H](Cc2c[nH]cn2)NC(=O)[C@H]([C@@H](C)O)NC(=O)[C@H](CCC(N)=O)NC(=O)CNC(=O)[C@H]2CCCN2C(=O)[C@H](CCC(N)=O)NC(=O)[C@H]([C@@H](C)O)NC(=O)[C@H](C(C)C)NC(=O)[C@H](CCCNC(=N)N)NC1=O [compound 58] (cyclo(THLATTFTGDGTPKTIRVTQ[dP]GQ)) | 0.15 | 14.11 | –
3 | CC[C@H](C)[C@@H]1NC(=O)[C@H]([C@@H](C)O)NC(=O)[C@H](CCCCN)NC(=O)[C@@H]2CCCN2C(=O)[C@H]([C@@H](C)O)NC(=O)CNC(=O)[C@H](CC(=O)O)NC(=O)CNC(=O)[C@H]([C@@H](C)O)NC(=O)[C@H](Cc2ccccc2)NC(=O)[C@H](C)NC(=O)[C@H]([C@@H](C)O)NC(=O)[C@H](CCC(=O)O)NC(=O)[C@H](CC(C)C)NC(=O)[C@H](Cc2c[nH]cn2)NC(=O)[C@H]([C@@H](C)O)NC(=O)[C@H](CCC(N)=O)NC(=O)CNC(=O)[C@H]2CCCN2C(=O)[C@H](CCC(N)=O)NC(=O)[C@H]([C@@H](C)O)NC(=O)[C@H](C(C)C)NC(=O)[C@H](CCCNC(=N)N)NC1=O [compound 60] (cyclo(THLETAFTGDGTPKTIRVTQ[dP]GQ)) | 0.66 | 2.62 | –
4 | CC[C@H](C)[C@@H]1NC(=O)[C@H]([C@@H](C)O)NC(=O)[C@H](CCCCN)NC(=O)[C@@H]2CCCN2C(=O)[C@H]([C@@H](C)O)NC(=O)CNC(=O)[C@H](CC(=O)O)NC(=O)CNC(=O)[C@H](C)NC(=O)[C@H](Cc2ccccc2)NC(=O)[C@H]([C@@H](C)O)NC(=O)[C@H]([C@@H](C)O)NC(=O)[C@H](CCC(=O)O)NC(=O)[C@H](CC(C)C)NC(=O)[C@H](Cc2c[nH]cn2)NC(=O)[C@H]([C@@H](C)O)NC(=O)[C@H](CCC(N)=O)NC(=O)CNC(=O)[C@H]2CCCN2C(=O)[C@H](CCC(N)=O)NC(=O)[C@H]([C@@H](C)O)NC(=O)[C@H](C(C)C)NC(=O)[C@H](CCCNC(=N)N)NC1=O [compound 62] (cyclo(THLETTFAGDGTPKTIRVTQ[dP]GQ)) | 0.97 | 1.18 | –

The next lines start with the values.

Row | Normalized SPOT fluorescence (Mut/WT) [1] | Relative Ki (Ki mut/Ki WT) [2] | Ki ([2]; FP competition, cyclic nNOS TAMRA probe, mean of triplicates, N.B. = not binding, read-out: Ki) [nM] | Compound
5 | 0.68 | 3.03 | – | CC[C@H](C)[C@@H]1NC(=O)[C@H]([C@@H](C)O)NC(=O)[C@H](CCCCN)NC(=O)[C@@H]2CCCN2C(=O)[C@H]([C@@H](C)O)NC(=O)CNC(=O)[C@H](CC(=O)O)NC(=O)[C@H](C)NC(=O)[C@H]([C@@H](C)O)NC(=O)[C@H](Cc2ccccc2)NC(=O)[C@H]([C@@H](C)O)NC(=O)[C@H]([C@@H](C)O)NC(=O)[C@H](CCC(=O)O)NC(=O)[C@H](CC(C)C)NC(=O)[C@H](Cc2c[nH]cn2)NC(=O)[C@H]([C@@H](C)O)NC(=O)[C@H](CCC(N)=O)NC(=O)CNC(=O)[C@H]2CCCN2C(=O)[C@H](CCC(N)=O)NC(=O)[C@H]([C@@H](C)O)NC(=O)[C@H](C(C)C)NC(=O)[C@H](CCCNC(=N)N)NC1=O [compound 63] (cyclo(THLETTFTADGTPKTIRVTQ[dP]GQ))
6 | 1.80 | 2.15 | – | CC[C@H](C)[C@@H]1NC(=O)[C@H]([C@@H](C)O)NC(=O)[C@H](CCCCN)NC(=O)[C@@H]2CCCN2C(=O)[C@H]([C@@H](C)O)NC(=O)CNC(=O)[C@H](C)NC(=O)CNC(=O)[C@H]([C@@H](C)O)NC(=O)[C@H](Cc2ccccc2)NC(=O)[C@H]([C@@H](C)O)NC(=O)[C@H]([C@@H](C)O)NC(=O)[C@H](CCC(=O)O)NC(=O)[C@H](CC(C)C)NC(=O)[C@H](Cc2c[nH]cn2)NC(=O)[C@H]([C@@H](C)O)NC(=O)[C@H](CCC(N)=O)NC(=O)CNC(=O)[C@H]2CCCN2C(=O)[C@H](CCC(N)=O)NC(=O)[C@H]([C@@H](C)O)NC(=O)[C@H](C(C)C)NC(=O)[C@H](CCCNC(=N)N)NC1=O [compound 64] (cyclo(THLETTFTGAGTPKTIRVTQ[dP]GQ))
7 | 1.34 | 0.27 | 410 | CC[C@H](C)[C@@H]1NC(=O)[C@H]([C@@H](C)O)NC(=O)[C@H](CCCCN)NC(=O)[C@@H]2CCCN2C(=O)[C@H]([C@@H](C)O)NC(=O)[C@H](C)NC(=O)[C@H](CC(=O)O)NC(=O)CNC(=O)[C@H]([C@@H](C)O)NC(=O)[C@H](Cc2ccccc2)NC(=O)[C@H]([C@@H](C)O)NC(=O)[C@H]([C@@H](C)O)NC(=O)[C@H](CCC(=O)O)NC(=O)[C@H](CC(C)C)NC(=O)[C@H](Cc2c[nH]cn2)NC(=O)[C@H]([C@@H](C)O)NC(=O)[C@H](CCC(N)=O)NC(=O)CNC(=O)[C@H]2CCCN2C(=O)[C@H](CCC(N)=O)NC(=O)[C@H]([C@@H](C)O)NC(=O)[C@H](C(C)C)NC(=O)[C@H](CCCNC(=N)N)NC1=O [compound 65] (cyclo(THLETTFTGDATPKTIRVTQ[dP]GQ))
8 | 1.30 | 0.83 | – | CC[C@H](C)[C@@H]1NC(=O)[C@H]([C@@H](C)O)NC(=O)[C@H](CCCCN)NC(=O)[C@@H]2CCCN2C(=O)[C@H](C)NC(=O)CNC(=O)[C@H](CC(=O)O)NC(=O)CNC(=O)[C@H]([C@@H](C)O)NC(=O)[C@H](Cc2ccccc2)NC(=O)[C@H]([C@@H](C)O)NC(=O)[C@H]([C@@H](C)O)NC(=O)[C@H](CCC(=O)O)NC(=O)[C@H](CC(C)C)NC(=O)[C@H](Cc2c[nH]cn2)NC(=O)[C@H]([C@@H](C)O)NC(=O)[C@H](CCC(N)=O)NC(=O)CNC(=O)[C@H]2CCCN2C(=O)[C@H](CCC(N)=O)NC(=O)[C@H]([C@@H](C)O)NC(=O)[C@H](C(C)C)NC(=O)[C@H](CCCNC(=N)N)NC1=O [compound 66] (cyclo(THLETTFTGDGAPKTIRVTQ[dP]GQ))
